This passage reports TGI and GI50 results from PubChem BioAssay (NCI).

Values joined by “and” are separate entries in the source; they are usually repeats but may differ in a detail not shown here. Equal entries are not always repeated.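 96-well plates; 48 h exposure; 5 concentrations. Endpoints by linear interpolation between flanking doses. Not reached: highest tested concentration assigned. Abbreviation: GI50, concentration required for 50% inhibition of growth. TGI marks complete inhibition of growth.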

Among the test systems are OVCAR-3 ovarian; SF-268 CNS; SK-MEL-2 melanoma; SK-MEL-28 melanoma; SW-620 colon; UACC-257 melanoma; K-562 leukemia; RPMI-8226 leukemia; T-47D breast; HS 578T breast.
Common to all, as to assay: DTP human tumour cell line panel, 48 h

With `O=C(c1ccc(O)cc1O)C1C(c2ccc(O)cc2)OC(c2ccc(O)cc2)C1C(=O)c1ccc(O)cc1O` (stereo not given), the TGI – broadly, the concentration giving total growth inhibition – in the experiment on OVCAR-3 ovarian was 40 µM; in the experiment with SF-268 CNS, 42.5 µM; in the experiment on SK-MEL-2 melanoma, 40.3 µM; with SK-MEL-28 melanoma, 36 µM; in the experiment with SW-620 colon, over 100 µM; in the experiment with UACC-257 melanoma, 39.7 µM.
As for `Nc1ccc2n[se]nc2c1`, the TGI with K-562 leukemia, with RPMI-8226 leukemia, in the experiment on SF-268 CNS, in the experiment with SK-MEL-2 melanoma, in the experiment on SK-MEL-28 melanoma and with SW-620 colon was over 100 µM throughout. The TGI with UACC-257 melanoma is over 100 µM.
As to `Cc1ccc(NC(=O)CCc2nc(=S)[nH][nH]2)cc1`, the TGI with K-562 leukemia, in the experiment on OVCAR-3 ovarian, with RPMI-8226 leukemia, in the experiment with SF-268 CNS, in the experiment with SK-MEL-2 melanoma and in the experiment with SK-MEL-28 melanoma was over 100 µM throughout. For the same compound, the TGI with SW-620 colon and with UACC-257 melanoma was over 100 µM each time.
On to `CCN1CCN(c2nc(C)cc(N(CCCNc3ccnc4cc(Cl)ccc34)Cc3ccc4c(c3)OCO4)n2)CC1`, for which the GI50 (commonly the concentration that inhibits growth by half) was 0.361 µM in the experiment on K-562 leukemia; 1.61 µM with OVCAR-3 ovarian; 0.794 µM in the experiment with RPMI-8226 leukemia; 1.62 µM with SF-268 CNS; 1.83 µM in the experiment on SK-MEL-2 melanoma; 1.61 µM in the experiment with SK-MEL-28 melanoma. Further, the GI50 in the experiment on SW-620 colon was 1.4 µM; with T-47D breast, 2.04 µM; in the experiment on UACC-257 melanoma, 1.8 µM. In addition, the TGI in the experiment with K-562 leukemia is 1.51 µM; with OVCAR-3 ovarian it was 3.96 µM; in the experiment on RPMI-8226 leukemia, 3.02 µM; in the experiment on SF-268 CNS it was 4.06 µM; with SK-MEL-2 melanoma, 3.5 µM; in the experiment on SK-MEL-28 melanoma, 3.11 µM. The TGI with SW-620 colon amounted to 3.12 µM; in the experiment with T-47D breast, 4.53 µM; with UACC-257 melanoma it was 3.49 µM.
On to `COC(=O)CCSC(=O)Nc1ccc(N=Nc2ccccc2)cc1`, for which the TGI in the experiment with K-562 leukemia is over 100 µM; with OVCAR-3 ovarian, 74.9 µM; in the experiment with RPMI-8226 leukemia it was over 100 µM; in the experiment on SF-268 CNS, over 100 µM; in the experiment with SK-MEL-28 melanoma it was over 100 µM; in the experiment with SW-620 colon it was over 100 µM. Further, the TGI with UACC-257 melanoma was over 100 µM.
For `COC1=C(N)C(=O)c2nc(-c3nc(C(=O)O)c(C)c(-c4ccc(OC)c(OC)c4O)c3N)ccc2C1=O`, the TGI is 0.0412 µM with HS 578T breast; 0.277 µM and 0.102 µM and 0.0281 µM with K-562 leukemia; 0.0395 µM in the experiment on OVCAR-3 ovarian; 0.00647 µM and 0.0298 µM and 0.0225 µM in the experiment on RPMI-8226 leukemia; 0.00904 µM and 0.0276 µM and < 0.01 µM in the experiment on SF-268 CNS; 0.00424 µM and 0.0268 µM and 0.0181 µM with SW-620 colon. The GI50 with K-562 leukemia was 0.0237 µM and 0.0112 µM and < 0.01 µM; in the experiment on OVCAR-3 ovarian it was 0.0283 µM and 0.0169 µM; in the experiment with RPMI-8226 leukemia, 0.00215 µM and 0.00924 µM and < 0.01 µM; in the experiment on SF-268 CNS, 0.00186 µM and 0.000781 µM and < 0.01 µM; with SW-620 colon it was 0.00124 µM and 0.00653 µM; in the experiment with UACC-257 melanoma, 0.00321 µM and 0.0122 µM and 0.0224 µM.
In the case of `Cc1nc(N)nc(N)c1CCCCc1ccc(N)cc1`, the TGI in the experiment on K-562 leukemia turned out to be 16.4 µM; in the experiment with OVCAR-3 ovarian, 20.9 µM; with RPMI-8226 leukemia, 26.5 µM; in the experiment on SF-268 CNS, 17.3 µM; in the experiment on SK-MEL-2 melanoma, 21.3 µM; in the experiment with SK-MEL-28 melanoma, 23.5 µM. The TGI with SW-620 colon turned out to be 19.8 µM; in the experiment with UACC-257 melanoma, 18.5 µM.
On to `NC1NC=NC2C1N=CN2C1OC(CO)C2[O][Sn][O]C21` (stereo not given), for which the GI50 in the experiment with K-562 leukemia, in the experiment on OVCAR-3 ovarian, in the experiment with RPMI-8226 leukemia, with SF-268 CNS, in the experiment with SK-MEL-2 melanoma and in the experiment on SK-MEL-28 melanoma was over 100 µM throughout. The GI50 in the experiment on SW-620 colon and in the experiment on UACC-257 melanoma was over 100 µM throughout. For the same compound, the concentration for total growth inhibition (TGI) in the experiment with K-562 leukemia, in the experiment with OVCAR-3 ovarian, in the experiment on RPMI-8226 leukemia, with SF-268 CNS, in the experiment with SK-MEL-2 melanoma and in the experiment with SK-MEL-28 melanoma was over 100 µM throughout. Further, the TGI with SW-620 colon and in the experiment on UACC-257 melanoma was over 100 µM throughout.
With `COc1ccccc1NC(=O)C1=C(C)NC(C)=C(C(=O)Nc2ccccc2OC)C1c1ccccc1[N+](=O)[O-]`, the TGI stood at 65 µM in the experiment on K-562 leukemia; 39.1 µM in the experiment on OVCAR-3 ovarian; 65.6 µM in the experiment with RPMI-8226 leukemia; 50.7 µM in the experiment on SF-268 CNS; 26 µM with SK-MEL-2 melanoma; 33.9 µM in the experiment on SK-MEL-28 melanoma. Also, the TGI with UACC-257 melanoma worked out at 47.5 µM.
With `COc1cc([N+](=O)[O-])c(OC)cc1-c1nc2sc(C)c(C)n2c1/C(N)=N/C(=N)N`, the GI50 with RPMI-8226 leukemia is 59.3 µM; in the experiment on SK-MEL-28 melanoma it was over 100 µM; in the experiment with SW-620 colon, 9.8 µM; with UACC-257 melanoma it was 1.02 µM. The TGI in the experiment on RPMI-8226 leukemia, in the experiment with SK-MEL-28 melanoma, in the experiment with SW-620 colon and in the experiment on UACC-257 melanoma was over 100 µM throughout.
Take `COc1cc[c]([Sn]([c]2ccc(OC)cc2)([c]2ccc(OC)cc2)[c]2ccc(OC)cc2)cc1`: the GI50 in the experiment on K-562 leukemia is 16.2 µM; with OVCAR-3 ovarian, 12.5 µM; in the experiment with RPMI-8226 leukemia it was 11.2 µM; in the experiment on SF-268 CNS, 29.7 µM; in the experiment with SK-MEL-2 melanoma it was 28.2 µM; in the experiment on SW-620 colon, 18.9 µM. Also, the concentration for total growth inhibition (TGI) was 56.1 µM with K-562 leukemia; 33.7 µM in the experiment on OVCAR-3 ovarian; 35.1 µM in the experiment on RPMI-8226 leukemia; over 100 µM in the experiment on SF-268 CNS; over 100 µM in the experiment with SK-MEL-2 melanoma; 55.9 µM with SW-620 colon.
Turning to `NC(=O)c1ccc2c(c1)-c1nc-2nc2[n-]c(nc3nc(nc4[n-]c(n1)c1ccc(C(N)=O)cc41)-c1ccc(C(N)=O)cc1-3)c1ccc(C(N)=O)cc21.[Co+2]`, the GI50 in the experiment with K-562 leukemia was 46.6 µM; with OVCAR-3 ovarian it was over 50 µM; in the experiment with RPMI-8226 leukemia it was over 50 µM; in the experiment with SF-268 CNS it was over 50 µM; in the experiment on SK-MEL-2 melanoma it was over 50 µM; in the experiment on SK-MEL-28 melanoma it was over 50 µM. In addition, the GI50 was 26.9 µM with SW-620 colon and over 50 µM in the experiment on UACC-257 melanoma. In addition, the TGI in the experiment with K-562 leukemia, in the experiment on OVCAR-3 ovarian, in the experiment with RPMI-8226 leukemia, with SF-268 CNS, with SK-MEL-2 melanoma and in the experiment on SK-MEL-28 melanoma was over 50 µM in each case. Moreover, the TGI with SW-620 colon and with UACC-257 melanoma was over 50 µM in each case.
